Values of other authors in paper PMC4546328, “Effects of Inhibiting Dipeptidyl Peptidase-4 (DPP4) in Cows with Subclinical Ketosis” (PLoS ONE, 2015).

Set-up: method as in earlier work
Settings: prescribing information; primarily small increase of neutrophil granulocytes counts

For `N[C@@H](CC(=O)N1CCn2c(nnc2C(F)(F)F)C1)Cc1cc(F)c(F)cc1F` [sitagliptin], the “effect on WBC” value is listed as “slight increase in WBC”.
